# Experimental data published in patent publication EP4417202A1, “ANTI-CANCER ACTION OF BAG1-SELECTIVE IMIDAZOPYRIDINE COMPOUNDS IN STEROID HORMONE RECEPTOR-POSITIVE BREAST AND PROSTATE CANCER” (Karlsruher Institut für Technologie, priority 2023, dated 2024).
# Key:
# [1] = system: p53; experiment: Western blot of p53 level in breast cancer cells; type: cell-based; settings: 48 h
# Description: (§3) For Western blotting, cells were lysed in NP-40 lysis buffer (1% NP-40, 50 mM Tris-HCl, pH 8.0, 150 mM NaCl, 5 mM EDTA) or 1× passive lysis buffer (Promega, Germany) for 15 min on ice. Cell debris was removed by centrifugation at 13,000 rpm for 10 min and used for SDS-polyacrylamide gel electrophoresis (PAGE) and Western blotting.
# (§4) Western Blotting was carried out using standard protocols with antibodies: p53 (clone DO1), p53 (Sp5, Thermo Fisher Scientific Karlsruhe, Germany), Mdm2 (4B2, Abcam, Cambridge, UK). […] Secondary goat anti-mouse and goat anti-rabbit antibodies were purchased from DAKO (Bollschweil, Germany).
# [2] = system: ERα response genes; experiment: Quantitative RT-PCR of ERα response genes in MCF-7 and T47D cells; type: cell-based; settings: 1 µM, 10 nM E2, 16 h
# Description: MCF-7, T47D and LNCaP cells (5×10^4 each) were seeded in 6-well plates and cultured with hormone-depleted medium for 3 days. Subsequently, the MCF-7 and T47D cells were treated with 10 nM 17-β-estradiol (E2) or dihydrotestosterone (DHT) for the LNCaP cells, 1 µM) X15695 (for the MCF-7 and T47D cells) or 5 µM) for LNCaP cells and X15695 together with E2 or DHT. A 1 h pre-treatment with X15695 was performed prior to treatment with E2 or DHT for 16 h. RNA was extracted using innuPREP RNA mini Kit 2.0 (Analytic Jena, Berlin, Germany). 1 µg RNA per sample was used as input material for the RNA sample preparations. Sequencing libraries were generated using NEBNext® UltraTM RNA Library Prep Kit for Illumina® (NEB, USA) following the manufacturer's recommendations and index codes were added to attribute sequences to each sample. The clustering of the index-coded samples was performed on a cBot Cluster Generation System using PE Cluster Kit cBot-HS (Illumina) according to the manufacturer's instructions. After cluster generation, the library preparations were sequenced on an Illumina platform and paired-end reads were generated. Library preparation and sequencing were carried out by Novogene Europe, Cambridge, UK. […] Select target genes were analyzed by RT-PCR experiments with RNA from the samples used for the RNA-seq analysis. […]
# [3] = system: AR; experiment: Western blot of AR level in prostate cancer cells; type: cell-based; settings: LNCaP and 22Rv.1 cells, 24 h
# Description: as §3, §4
# [4] = system: ERα; settings: MCF-7 cells, 1 µM for 24 h, then 100 µg/ml cycloheximide; > 120 min in the absence of X15695
# Description: Thereafter, cells were incubated with the protein synthesis inhibitor cycloheximide (100 µg/ml) and harvested at time points 0, 30, 60, 90 and 120 min. Cells were lysed and used for Western blotting to determine the ERα level at each time point.
# [5] = system: LAPC-4 tumors; experiment: Mouse xenograft experiment, LAPC-4; type: in vivo; settings: LAPC-4 xenograft, 42 days
# Description: MCF-7 and LAPC-4 cells (2×10^6) were suspended in 100 µl PBS: Matrigel (Corning NY USA, 1:1) and injected subcutaneously into both flanks of 6-7 weeks old female (for MCF-7 cells) and male (for LAPC-4 cells) athymic nude-Foxn1^nu mice (Envigo RMS GmbH, Düsseldorf, Germany). When tumor volumes were around 50 to100 mm^3, mice were randomized into four groups (7 mice per group) and treated daily by oral gavage as follows: (1) Control group (Vehicle) (corn oil, 1.0% dimethyl sulfoxide (DMSO) and (2) X15695 group, 30 mg per kg body weight) for the MCF-7 tumors or (1) Control group (Vehicle) (corn oil, 1.0% dimethyl sulfoxide (DMSO) ([…]), (3) X15695 group, 30 mg per kg body weight) and, (4) X15695 group (15 mg per kg body weight) for the LAPC-4 tumors. Body weight and tumor volumes were measured twice a week. Tumor volume was measured with a digital vernier caliper and calculated using the formula vol = length × width × height × 0.5236 and recorded or calculated relative to the starting volume which was nominally set at 100%. After 16 days for the MCF-7 tumors or 42 days for the LAPC-4 tumors, mice were sacrificed and the tumors removed, photographed, and weighed. Percent body weight change was calculated using the following formula: group percent weight change = [(new weight - initial weight)/initial weight] × 100]. Tumors were snap-frozen and stored for Western blot analysis.
# [6] = system: BAG1 in a complex with mortalin; experiment: Co-immunoprecipitation in MCF-7 cells; type: cell-based; settings: 1 µM, 48 h
# Description: (§1) Cells were harvested, washed with PBS, and lysed using NP-40 lysis buffer. Protein A agarose beads (Thermo Fisher Scientific) were mixed with protein G agarose beads (Thermo Fisher Scientific) (4:1) and preincubated overnight at 4°C with anti-p53 or anti-BAG1 or control IgG antibody. Cellular extracts from X15695 treated and untreated cells (1,000 µg) were incubated with antibody-preincubated protein A/G agarose beads for 3 to 4 h at room temperature. The beads with immunoprecipitated proteins were collected at 4°C by centrifugation at 1,000 g for 5 min and washed 4 to 5 times with NP-40 lysis buffer. The immunoprecipitated proteins were eluted by heating in SDS sample buffer for 5 min at 95°C and resolved on SDS-PAGE. Thereafter, they were subjected to Western blot analysis to detect mortalin, BAG1, BAG2, BAG5 and p53. Cellular extracts containing 50 to 70 µg protein from X15695 treated and untreated cells were used as the input control for the targeted proteins.
# [7] = system: p53/mortalin complex; experiment: Co-immunoprecipitation in MCF-7 cells; type: cell-based; settings: 1 µM, 48 h
# Description: as §1
# [8] = target: T1, BAG1L (Homo sapiens, UniProt Q99933); experiment: Cellular thermal shift assay (Tagg-CETSA) in MCF-7 cells; type: binding; settings: 1 µM, 1 h
# T1 construct: endogenous in cells; host or cells: MCF-7
# T1 sequence (Q99933 whole entry): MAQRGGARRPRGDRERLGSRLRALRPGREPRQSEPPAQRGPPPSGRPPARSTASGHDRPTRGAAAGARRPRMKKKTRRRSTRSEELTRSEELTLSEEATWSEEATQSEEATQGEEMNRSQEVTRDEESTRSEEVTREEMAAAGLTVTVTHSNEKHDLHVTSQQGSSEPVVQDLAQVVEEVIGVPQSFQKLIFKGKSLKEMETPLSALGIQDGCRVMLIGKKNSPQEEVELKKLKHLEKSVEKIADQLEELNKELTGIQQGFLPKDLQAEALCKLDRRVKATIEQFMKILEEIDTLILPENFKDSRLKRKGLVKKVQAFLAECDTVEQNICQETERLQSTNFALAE
# Description: (§2) To determine the aggregation temperature (Tagg-CETSA), MCF-7 cells were harvested and resuspended at a concentration of 2×10^6 cells/ml. X15695 (1 µM) or the same volume of DMSO were added to the cell suspension and incubated for 1 h at 37°C. Cells were washed and resuspend with phosphate-buffered saline (PBS) to a final concentration of 3×10^7 cells/ml. The cell suspension was evenly distributed into different tubes and treated with a gradient of temperature ranging from 37 to 62°C for 3 min. Cells were incubated 3 min at room temperature to ensure a uniform temperature between different tubes and then snap frozen with liquid nitrogen. Cells were lysed by freeze/thaw cycles with liquid nitrogen and centrifuged at 20,000 g for 20 min. Stable BAG proteins present in the supernatant were quantified by Western blotting using an anti-BAG1, 2, 3, and 5 antibodies and β-actin antibody for loading control.
# [9] = target: T2, BAG1 (Homo sapiens, UniProt Q99933); experiment: as above; type: binding; settings: 1 µM, 1 h
# T2 construct: endogenous in cells; host or cells: MCF-7
# T2 sequence (Q99933 116-345): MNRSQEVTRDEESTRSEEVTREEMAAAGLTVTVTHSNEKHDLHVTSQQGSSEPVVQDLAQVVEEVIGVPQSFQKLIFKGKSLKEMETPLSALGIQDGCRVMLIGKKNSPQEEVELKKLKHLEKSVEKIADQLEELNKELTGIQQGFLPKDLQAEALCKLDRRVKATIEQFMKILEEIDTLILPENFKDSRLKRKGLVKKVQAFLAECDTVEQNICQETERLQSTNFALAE
# Description: as §2
# [10] = target: T3, BAG1M (Homo sapiens, UniProt Q99933); experiment: as above; type: binding; settings: 1 µM, 1 h
# T3 construct: endogenous in cells; host or cells: MCF-7
# T3 sequence (Q99933 72-345): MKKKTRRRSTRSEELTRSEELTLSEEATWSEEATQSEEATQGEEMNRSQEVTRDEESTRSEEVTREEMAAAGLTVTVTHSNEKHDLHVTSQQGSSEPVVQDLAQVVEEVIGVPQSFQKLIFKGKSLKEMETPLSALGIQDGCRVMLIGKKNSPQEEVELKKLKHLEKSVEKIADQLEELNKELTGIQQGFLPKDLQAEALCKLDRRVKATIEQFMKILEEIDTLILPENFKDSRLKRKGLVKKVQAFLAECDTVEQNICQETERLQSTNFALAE
# Description: as §2
smiles,measurement,setting,value
"Fc1ccc(-c2cn3cc(C(F)(F)F)cc(Cl)c3n2)cc1 [Compound X15695, 8-Chloro-2-(4-fluorophenyl)-6-(trifluoromethyl)imidazo[1,2-a]pyridine]",p53 level,[1]; MCF-7 cells (wild-type p53),significantly increased
same,p53 level,[1]; T47D cells (mutated p53 L194F),not in T47D cells
same,E2-mediated gene expression,[2],downregulation of E2-mediated gene expression
same,AR level,[3],did not strongly downregulate AR level
same,ERα half-life,[4],about 60 min
same,tumor growth,"[5]; oral 30 mg/kg/day, less effective than enzalutamide (10 mg/kg/day)",effectively inhibit tumor growth over vehicle
same,"tolerability, body weight",[5]; oral,well tolerated during the study and no sign of toxicity or weight loss was observed
same,BAG1-mortalin interaction,[6],indeed decreased this interaction
same,p53-mortalin interaction,[7],decreased this interaction
same,increase of aggregation temperature (Tagg) over vehicle,[8],1-2 °C
same,increase of aggregation temperature (Tagg) over vehicle,[9],3 °C
same,increase of aggregation temperature (Tagg) over vehicle,[10],1-2 °C
